Data taken from patent US20160213007A1, “Methods and Compositions to Elicit Resistance to Fungal Disease in Plants and Plant Parts” (ECOFLORA AGRO S.A.S., priority 2013, published 2016).

Test system: Botrytis cinerea
Test: Growth inhibition of Botrytis cinerea by acetophenones

Question: How did the “inhibition of the growth of the fungus Botrytis cinerea” value turn out when `O=C(CO)c1ccccc1` [2-hydroxy acetophenone] was run?
Answer: can inhibit the growth
